# In patent publication US4517179A, “Rapid dissolving, uniform drug compositions and their preparation” (priority 1984, dated 1985):
# How the values were obtained:
# [1] = 0.01N hydrochloric acid; cited from earlier work
# Water solubility = format: physicochemical; conditions: for solubility: water
# [2] = Particle size distribution by screen analysis; format: physicochemical; conditions: for particle size d16%: 16 weight percent; for particle size d50%: 50 weight percent; for particle size d84%: 84 weight percent
# Protocol: where d is the particle diameter in μm at the indicated percentage by weight and σg is the geometric standard deviation.
# The particle size distributions of drugs and excipients were determined by a screen analysis technique. A 5 gm sample of each test material was placed on the top screen of a set of six US standard screens of an Allen Bradley Sonic Sifter. The screens were pulsed for 15 minutes. The following screens were used: 80 mesh (180 μm), 100 mesh (150 μm), 140 mesh (106 μm), 200 mesh (75 μm), 270 mesh (53 μm) and 400 mesh (38 μm). The weights of the fractions retained on the screens were obtained. Particle sizes (d) at specific weight percents (16, 50, and 84) were obtained from a log probability plot of the data as described by Edmundson (Advances in Pharmaceutical Sciences, Bean, H.S. et al. Editors, Academic, London, England p. 95, 1967). These particle sizes are described as d16, d50, and d84.
# The slopes of the lines from the plots were calculated to give the geometric standard deviation (σg).
# [3] = result from metolazone usage; cited from earlier work
# [4] = listed as fine-milled metolazone
# [5] = listed as monocrystalline metolazone
structure (smiles),measurement,setting,value
Cc1ccccc1N1C(=O)c2cc(S(N)(=O)=O)c(Cl)cc2NC1C (centres unmarked) [amorphous and metastable metolazone],dissolution rate relative to the stable modification (mp. 267°-270° C.),[1],about 8 times faster
"Cc1ccccc1N1C(=O)c2cc(S(N)(=O)=O)c(Cl)cc2NC1C (centres unmarked) [metolazone, 2-methyl-3-o-tolyl-6-sulfamyl-7-chloro-1,2,3,4-tetrahydro-4-quinazolinone]",water solubility,Water solubility; 25° C.,approximately 60.3 mcg/ml
same,solubility,Water solubility; 25° C.,~60 µg/mL
same,solubility,Water solubility; 36° C.,~100 µg/mL
same,particle size d16%,[2]; [4],155 μm
same,particle size d16%,[2]; listed as milled metolazone,94 μm
same,particle size d16%,[2]; [5],460 μm
same,particle size d50%,[2]; [4],86 μm
same,particle size d50%,[2]; listed as milled metolazone,56 μm
same,particle size d50%,[2]; [5],190 μm
same,particle size d84%,[2]; [4],48 μm
same,particle size d84%,[2]; listed as milled metolazone,34 μm
same,particle size d84%,[2]; [5],83 μm
same,side effects,[3],hypokalemia
Nc1nc(N)c2nc(-c3ccccc3)c(N)nc2n1 [triamterene],particle size d16%,[2],76 μm
same,particle size d50%,[2],41 μm
same,particle size d84%,[2],17 μm
